What all share (assay): minimal inhibiting concentration (MIC), filter disc agar plate test
Type in all cases: cell-based

For one assay, the system named is Penicillium glaucum. To be noted: P. glaucum; Sabouraud agar, three days incubation. The method, then: (§1) The bacteriological effectiveness of the compounds of the invention was determined with reference to minimal inhibiting concentrations, that is, the minimal concentration that will effect complete inhibition of germ growth (MIC). The test procedure is as follows:
(§2) A 1% suspension, botained by homogenizing 500 mg. of the test agent in 50 ml. of 0.5% natrosol solution (natrosol 250 HRPS = hydroxymethylcellulose), is serially diluted with 0.5% natrosol solution to provide suspensions, in sterile test tubes, having concentrations of 0.1, 0.05, 0.01 and 0.005 percent. To ensure accuracy in dilution, the suspensions are mixed with the aid of a mechanical mixer. The dilutions (6 ml.) are added to sterile cups and immediately 10 filter discs (.phi. about 10 mm) are placed on the surface of the liquid in each cup. The filter discs, which slowly sink to the bottom on becoming saturated, are left in the solutions for one hour. 16-Hour old cultures of Escherichia coli, Staphylococcus aureus, Pyoceanus fluorescens and Proteus vulgaris are diluted at the ratio of 1:10 in glucose broth. 1-Week cultures of Penicillium glaucum, Aspergillus niger, Chaetomium globosum, Trichoderma viride, Humicola sp., Scopulariopsis brevicaulis, Pullularia pullulans, Sclerophoma pityophila, Saccharomyces cerevisiae and Candida albicans are harvested by rinsing and diluted 1:10 in nutrient broth.
(§3) Standard II nutrient agar plates, with an addition of lactose and bromothymol blue (BROLAC agar) for bacteria, and Sabouraud agar plates for yeasts and fungi, are dried and labeled (10 Sabouraud agar plates and 4 nutrient agar plates were used per preparation). Of the diluted germ suspensions, 0.05 ml (1 drop) is inoculated onto each plate. Prior to further treatment, the plates are allowed to stand for one-half hour to absorb the germ suspension. Filter discs, corresponding to each of the five dilutions, are placed on the surface of each inoculated plate for each culture (step 1). The plates are examined for zones of inhibition after twenty-four hours incubation in the case of bacteria, and after three days incubation in the case of yeasts and fungi. Antimicrobial activity is indicated by occurance of a zone of inhibition. In the case of bacteria, the purity of the culture can be determined at the same time by lactose fermentation as indicated by color change in the nutrient medium. A visible inhibition ring is designated as negative growth an no inhibition ring as 3+ growth. […] A new dilution series then is prepared, with only one, or at most two, filter discs being placed on the surface of each plate for each culture. Activity is then determined as described above.
(§4) The MIC values, expressed in percent concentration of the test agent, is presented in TAble 1 for compounds of the invention having formula I designated Example 1 (R--O--A = CH2 CH2 OCH3), Example 2 (R--O--A = CH2 CH2 OCH3) and Example 4(R--O--A = CH2 CH2 CH2 OCH2 CH3), and for two known compounds, designated A (3,5-dibenzyl-tetrahydro-2H-1,3,5-thiadiazine-2-thione) and B[3,5-bis(2-hydroxyethyl)-2H-1,3,5-thiadiazine-2-thione].

The next assay has as its system Escherichia coli. To be noted: E. coli; nutrient agar, 24 hours incubation. The method, then:
as §1, §2, §3, §4

A further assay has as its system Aspergillus niger. To be noted: A. niger; Sabouraud agar, three days incubation. The method, then:
as §1, §2, §3, §4

The test system of the next assay is Saccharomyces cerevisiae. Conditions: S. cerevisiae; Sabouraud agar, three days incubation. The method, then:
as §1, §2, §3, §4

A further assay concerns Pyoceanus fluorescens. To be noted: P. fluorescens; nutrient agar, 24 hours incubation. How it is done:
as §1, §2, §3, §4

A further assay relates to Staphylococcus aureus. To be noted: S. aureus; nutrient agar, 24 hours incubation. How it is done:
as §1, §2, §3, §4

The subject of the next assay is Pullularia pullulans. Conditions: P. pullulans; Sabouraud agar, three days incubation. How it is done: as §1, §2, §3, §4
The test system of the next assay is Sclerophoma pityophila. To be noted: S. pityophila; Sabouraud agar, three days incubation. The method, then:
as §1, §2, §3, §4

A further assay has as its system Proteus vulgaris. To be noted: P. vulgaris; nutrient agar, 24 hours incubation. How it is done:
as §1, §2, §3, §4

The next assay relates to Candida albicans. Conditions: C. albicans; Sabouraud agar, three days incubation. The method, then: as §1, §2, §3, §4
The test system of another assay is Chaetomium globosum. To be noted: C. globosum; Sabouraud agar, three days incubation. The method, then: as §1, §2, §3, §4
For another assay, the system named is Trichoderma viride. Conditions: T. viride; Sabouraud agar, three days incubation. The method, then:
as §1, §2, §3, §4

Assay [1] deals with Scopulariopsis brevicaulis. To be noted: S. brevicaulis; Sabouraud agar, three days incubation. The method, then: as §1, §2, §3, §4
The next assay concerns Humicola sp. Conditions: Sabouraud agar, three days incubation. The method, then: as §1, §2, §3, §4

Take `CCOCCCN1CSC(=S)N(CCCOCC)C1` [Ex. 4, 3,5-Bis(3-ethoxypropyl)-tetrahydro-2H-1,3,5-thiadiazine-2-thione]: the MIC against Penicillium glaucum is under 0.003 % conc; in the assay on Escherichia coli, 0.1 % conc; with Aspergillus niger, under 0.003 % conc; with Saccharomyces cerevisiae, under 0.003 % conc; in the assay on Pyoceanus fluorescens it was 0.1 % conc; against Staphylococcus aureus, 0.05 % conc. Further, the MIC in the assay with Pullularia pullulans is given as under 0.003 % conc; in the assay with Sclerophoma pityophila it was under 0.003 % conc; with Proteus vulgaris it was 0.05 % conc; with Candida albicans, 0.01 % conc.

`COCCN1CSC(=S)N(CCOC)C1` [Ex. 2, 3,5-Bis(2-methoxyethyl)-tetrahydro-2H-1,3,5-thiadiazine-2-thione]: the MIC turned out to be 0.05 % conc against Penicillium glaucum; 0.1 % conc against Escherichia coli; 0.1 % conc in the assay on Aspergillus niger; 0.01 % conc in the assay with Chaetomium globosum; 0.01 % conc in the assay on Saccharomyces cerevisiae; 0.1 % conc with Pyoceanus fluorescens. Further, the MIC against Trichoderma viride was 0.1 % conc; with Staphylococcus aureus it was 0.07 % conc; in the assay with Pullularia pullulans, 0.05 % conc; in assay [1] it was under 0.005 % conc; in the assay with Sclerophoma pityophila, under 0.005 % conc; against Proteus vulgaris, 0.1 % conc. In addition, the MIC is reported as under 0.005 % conc in the assay on Humicola sp. and 0.05 % conc against Candida albicans.

`OCCN1CSC(=S)N(CCO)C1` [B, 3,5-bis(2-hydroxyethyl)-2H-1,3,5-thiadiazine-2-thione, reference compound]: the MIC in the assay on Penicillium glaucum turned out to be 1 % conc; against Escherichia coli it was 1 % conc; in the assay with Aspergillus niger, 1 % conc; in the assay with Chaetomium globosum, 1 % conc; with Saccharomyces cerevisiae, 0.1 % conc; in the assay with Pyoceanus fluorescens, 0.1 % conc. Moreover, the MIC in the assay with Trichoderma viride worked out at 1 % conc; against Staphylococcus aureus, 0.05 % conc; with Pullularia pullulans it was 0.01 % conc; in assay [1] it was 0.1 % conc; against Sclerophoma pityophila it was 0.01 % conc; in the assay on Proteus vulgaris, 1 % conc. Besides, the MIC is given as 0.1 % conc against Humicola sp. and 1 % conc against Candida albicans.

In the case of `COCCCN1CSC(=S)N(CCCOC)C1` [Ex. 1, 3,5-Bis(3-methoxypropyl)-tetrahydro-2H-1,3,5-thiadiazine-2-thione], the MIC was found to be 0.005 % conc in the assay with Penicillium glaucum; 0.1 % conc with Escherichia coli; 0.03 % conc in the assay on Aspergillus niger; 0.005 % conc against Chaetomium globosum; 0.05 % conc against Saccharomyces cerevisiae; 0.1 % conc with Pyoceanus fluorescens. Further, the MIC with Trichoderma viride was 0.03 % conc; with Staphylococcus aureus, 0.05 % conc; in the assay on Pullularia pullulans it was 0.005 % conc; in [1], 0.005 % conc; with Sclerophoma pityophila, 0.005 % conc; in the assay on Proteus vulgaris, 0.1 % conc. Also, the MIC came to 0.01 % conc against Humicola sp. and 0.05 % conc against Candida albicans.

Consider `S=C1SCN(Cc2ccccc2)CN1Cc1ccccc1` [A, 3,5-dibenzyl-tetrahydro-2H-1,3,5-thiadiazine-2-thione, reference compound], for which the MIC against Penicillium glaucum is on record as over 1 % conc; in the assay on Escherichia coli, 1 % conc; against Aspergillus niger, over 1 % conc; against Chaetomium globosum, over 1 % conc; against Saccharomyces cerevisiae, over 1 % conc; in the assay with Pyoceanus fluorescens, 1 % conc. For the same molecule, the MIC against Trichoderma viride is over 1 % conc; in the assay on Staphylococcus aureus, 1 % conc; in the assay on Pullularia pullulans, over 1 % conc; in assay [1], over 1 % conc; with Sclerophoma pityophila it was over 1 % conc; against Proteus vulgaris, 1 % conc. In addition, the MIC in the assay with Humicola sp. and in the assay on Candida albicans was over 1 % conc throughout.
